US20190062322A1, “PUMA INHIBITOR, METHOD FOR PREPARATION THEREOF, AND USE THEREOF” (FOURTH MILITARY MEDICAL UNIVERSITY, priority 2016, published 2019)

target: Mcl-1 (Homo sapiens, UniProt Q07820); assay: FPA competition assay, inhibition of Mcl-1 / FITC-Mcl-BH3 binding; settings: 250 nM Mcl-1 and 250 nM FITC-Mcl-BH3 probe, pH 7.5, cells printed in nM
From the text: Experiment 1 the Inhibition Assay of Compounds 1˜12 to Mcl-1
FPA competition assays were adopted to evaluate the binding affinity of compounds to Mcl-1. The FITC labelled BH3 peptide of Mcl-1 (FITC-Mcl-BH3, FITC-AHx-KALETLRRVGD GVQRNHITAF-NH2) was synthesized and used as fluorescence probe in the FPA competition assays. The binding of FITC-Mcl-BH3 and Mcl-1 can enhance the polarized light. While the binding of compounds and Mcl-1 would reduce the polarization, IC50 is the compound concentration that displaces 50% of the fluorescent ligand from the ligand-receptor complex.
All assays were performed in the assay buffer (pH 7.5) composed of 20 mM Tris, 50 mM NaCl, 3 mM DTT and 2% DMSO. The FPA competition assays were carried out in the 96-well, black, flat-bottom plates (Nunc). To check the interference effects of candidate compounds on the interaction between Mcl-1 and FITC-Mcl-BH3, solutions containing 250 nM Mcl-1 and 250 nM fluorescence probes were titrated with […] selected compounds (0-128 μM, 2-times gradient) dissolved in the assay buffer. The emission fluorescence changes were recorded from 480 to 540 nm by TECAN Infinite M1000 Microplate Spectrophotometer with excitation wavelength being 450 nm. The IC50 were calculated.

Chain of Mcl-1 (Q07820 whole entry, species assumed): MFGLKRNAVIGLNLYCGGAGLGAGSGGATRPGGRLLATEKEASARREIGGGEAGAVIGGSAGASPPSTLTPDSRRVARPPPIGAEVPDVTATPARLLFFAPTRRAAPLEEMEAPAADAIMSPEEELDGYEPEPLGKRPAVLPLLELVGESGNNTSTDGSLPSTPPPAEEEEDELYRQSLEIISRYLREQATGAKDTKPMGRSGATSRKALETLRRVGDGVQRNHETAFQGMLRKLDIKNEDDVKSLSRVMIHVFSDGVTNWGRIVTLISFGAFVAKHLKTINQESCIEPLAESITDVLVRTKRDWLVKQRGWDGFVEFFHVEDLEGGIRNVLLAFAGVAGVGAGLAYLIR

Row | SMILES | IC50
1 | Cc1ccc(C=C2SC(N3CCN(CCO)CC3)=NC2=O)cc1 [Compound 3] | 401 nM
2 | COc1ccc(/C=C2\SC(N3CCN(CCO)CC3)=NC2=O)cc1 [Compound 4] | 161 nM
3 | O=C1N=C(N2CCN(CCO)CC2)S/C1=C\c1ccc(Cl)cc1 [Compound 5] | 89.7 nM
4 | O=C1N=C(N2CCC(CCO)CC2)SC1=Cc1ccccc1 [Compound 8] | 589 nM
5 | COc1ccc(C=C2SC(N3CCC(CCO)CC3)=NC2=O)cc1 [Compound 11] | 52.1 nM
6 | O=C1N=C(N2CCC(CCO)CC2)SC1=Cc1ccc(Cl)cc1 [Compound 12] | 369 nM
